In US10294202B2, “Pyrrolidinones as herbicides” (FMC Corporation, priority 2013, dated 2019):

Key:
crabgrass, large = test: Test A pre-/postemergence herbicide test; format: in vivo, Digitaria sanguinalis
Summary of the method: (§1)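 Seeds sown in loam soil/sand blend received a preemergence directed soil spray of test chemical in non-phytotoxic solvent with surfactant; postemergence plants (2–10 cm, one- to two-leaf stage) were sprayed with the same formulation. After about 10 days in greenhouse, injury was rated visually versus untreated controls, 0 (no effect) to 100 (complete control).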

ducksalad = test: Test B flooded paddy test; format: in vivo, Heteranthera limosa; settings: Flood, scale of 0 to 100 where 0 is no effect and 100 is complete control
Summary of the method: (§2)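 Scoring: visual, compared with untreated controls, 0 = no effect through 100 = complete control, taken 13 to 15 days after treatment in the greenhouse. Compounds had been added to paddy water over soil flooded 3 cm deep at the plants' 2-leaf stage.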

wheat = test: Test A pre-/postemergence herbicide test; format: in vivo, Triticum aestivum
Summary of the method: as §1

giant foxtail = test: Test A pre-/postemergence herbicide test; format: in vivo, Setaria faberii
Summary of the method: as §1

barnyardgrass [1] = test: Test B flooded paddy test; format: in vivo, Echinochloa crus-galli; settings: Flood, scale of 0 to 100 where 0 is no effect and 100 is complete control
Summary of the method: as §2

velvetleaf = test: Test A pre-/postemergence herbicide test; format: in vivo, Abutilon theophrasti
Summary of the method: as §1

sedge, umbrella = test: Test B flooded paddy test; format: in vivo, Cyperus difformis; settings: Flood, scale of 0 to 100 where 0 is no effect and 100 is complete control
Summary of the method: as §2

rice = test: Test B flooded paddy test; format: in vivo, Oryza sativa; settings: Flood, scale of 0 to 100 where 0 is no effect and 100 is complete control
Summary of the method: as §2

corn = test: Test A pre-/postemergence herbicide test; format: in vivo, Zea mays
Summary of the method: as §1

pigweed = test: Test A pre-/postemergence herbicide test; format: in vivo, Amaranthus retroflexus
Summary of the method: as §1

morningglory = test: Test A pre-/postemergence herbicide test; format: in vivo, Ipomoea spp.
Summary of the method: as §1

barnyardgrass [2] = test: Test A pre-/postemergence herbicide test; format: in vivo, Echinochloa crus-galli
Summary of the method: as §1

[3] = Postemergence, 125 g ai/ha, 0 to 100 scale, 0 is no effect, 100 is complete control
[4] = Postemergence, 500 g ai/ha, 0 to 100 scale (0 no effect, 100 complete control)
[5] = Preemergence, 125 g ai/ha, 0 to 100 scale where 0 is no effect and 100 is complete control
[6] = preemergence, 500 g ai/ha, 0 to 100 scale, 0 is no effect and 100 is complete control

SMILES | Plant response rating, Crabgrass, Large (crabgrass, large; [3]) | Plant response rating, Crabgrass, Large (crabgrass, large; [4]) | Plant response rating, Crabgrass, Large (crabgrass, large; [6]) | Plant response rating, Wheat (wheat; [4]) | Plant response rating, Wheat (wheat; [5]) | Plant response rating, Wheat (wheat; [6]) | Plant response rating, Foxtail, Giant (giant foxtail; [3]) | Plant response rating, Foxtail, Giant (giant foxtail; [4]) | Plant response rating, Foxtail, Giant (giant foxtail; [5]) | Plant response rating, Foxtail, Giant (giant foxtail; [6]) | Plant response rating, Velvetleaf (velvetleaf; [4]) | Plant response rating, Velvetleaf (velvetleaf; [5]) | Plant response rating, Velvetleaf (velvetleaf; [6]) | Plant response rating, Corn (corn; [3]) | Plant response rating, Corn (corn; [4]) | Plant response rating, Corn (corn; [5]) | Plant response rating, Corn (corn; [6]) | Plant response rating, Pigweed (pigweed; [4]) | Plant response rating, Pigweed (pigweed; [5]) | Plant response rating, Pigweed (pigweed; [6]) | other results
O=C1NCC(c2ccc(C(F)(F)F)c(Cl)c2)C1C(=O)Nc1ccccc1C(F)(F)F (racemic) [Compound 251] | 0 | 30 | 90 | 0 | 0 | 0 | 0 | 20 | 40 | 80 | 0 | 0 | 0 | 0 | 0 | 0 | 0 | 20 | 0 | 30 | Plant response rating, Crabgrass, Large (crabgrass, large; [5]): 80; Plant response rating, Ducksalad (ducksalad; 1000 g ai/ha): 90; Plant response rating, Wheat (wheat; [3]): 0; Plant response rating, Barnyardgrass (barnyardgrass [1]; 1000 g ai/ha): 45; Plant response rating, Velvetleaf (velvetleaf; [3]): 0; Plant response rating, Sedge, Umbrella (sedge, umbrella; 1000 g ai/ha): 0; Plant response rating, Rice (rice; 1000 g ai/ha): 0; Plant response rating, Pigweed (pigweed; [3]): 0; Plant response rating, Morningglory (morningglory; [3]): 0; Plant response rating, Morningglory (morningglory; [4]): 0; Plant response rating, Morningglory (morningglory; [5]): 0; Plant response rating, Morningglory (morningglory; [6]): 0; Plant response rating, Barnyardgrass (barnyardgrass [2]; [3]): 0; Plant response rating, Barnyardgrass (barnyardgrass [2]; [4]): 30; Plant response rating, Barnyardgrass (barnyardgrass [2]; [5]): 20; Plant response rating, Barnyardgrass (barnyardgrass [2]; [6]): 80
O=C1NCC(c2ccc(OC(F)(F)F)cc2)C1C(=O)Nc1cccc(F)c1F (racemic) [Compound 257] | 90 | 90 | 90 | 30 | 0 | 0 | 80 | 90 | 80 | 90 | 0 | 0 | 0 | 0 | 20 | 0 | 0 | 0 | 0 | 0 | Plant response rating, Crabgrass, Large (crabgrass, large; [5]): 90; Plant response rating, Ducksalad (ducksalad; 250 g ai/ha): 70; Plant response rating, Wheat (wheat; [3]): 20; Plant response rating, Barnyardgrass (barnyardgrass [1]; 250 g ai/ha): 0; Plant response rating, Velvetleaf (velvetleaf; [3]): 0; Plant response rating, Sedge, Umbrella (sedge, umbrella; 250 g ai/ha): 0; Plant response rating, Rice (rice; 250 g ai/ha): 15; Plant response rating, Pigweed (pigweed; [3]): 0; Plant response rating, Morningglory (morningglory; [3]): 0; Plant response rating, Morningglory (morningglory; [4]): 0; Plant response rating, Morningglory (morningglory; [5]): 0; Plant response rating, Morningglory (morningglory; [6]): 0; Plant response rating, Barnyardgrass (barnyardgrass [2]; [3]): 50; Plant response rating, Barnyardgrass (barnyardgrass [2]; [4]): 80; Plant response rating, Barnyardgrass (barnyardgrass [2]; [5]): 40; Plant response rating, Barnyardgrass (barnyardgrass [2]; [6]): 80
O=C1NCC(c2ccc(C(F)(F)F)cc2F)C1C(=O)Nc1ccccc1F (racemic) [Compound 259] | 80 | 90 | 90 | 0 | 0 | 0 | 50 | 70 | 60 | 90 | 0 | 0 | 0 | 0 | 0 | 0 | 0 | 0 | 0 | 0 | Plant response rating, Ducksalad (ducksalad; 1000 g ai/ha): 90; Plant response rating, Wheat (wheat; [3]): 0; Plant response rating, Barnyardgrass (barnyardgrass [1]; 1000 g ai/ha): 20; Plant response rating, Velvetleaf (velvetleaf; [3]): 0; Plant response rating, Sedge, Umbrella (sedge, umbrella; 1000 g ai/ha): 10; Plant response rating, Rice (rice; 1000 g ai/ha): 10; Plant response rating, Pigweed (pigweed; [3]): 0; Plant response rating, Morningglory (morningglory; [3]): 0; Plant response rating, Morningglory (morningglory; [4]): 0; Plant response rating, Morningglory (morningglory; [5]): 0; Plant response rating, Morningglory (morningglory; [6]): 0; Plant response rating, Barnyardgrass (barnyardgrass [2]; [3]): 50; Plant response rating, Barnyardgrass (barnyardgrass [2]; [4]): 70; Plant response rating, Barnyardgrass (barnyardgrass [2]; [5]): 10; Plant response rating, Barnyardgrass (barnyardgrass [2]; [6]): 80
O=C1NCC(c2ccc(C(F)(F)F)nc2)C1C(=O)Nc1ccccc1C(F)(F)F (racemic) [Compound 264] | 80 | 90 | 100 | 0 | 0 | 0 | 60 | 80 | 80 | 90 | 30 | 0 | 0 | 0 | 0 | 0 | 0 | 60 | 50 | 80 | Plant response rating, Crabgrass, Large (crabgrass, large; [5]): 100; Plant response rating, Ducksalad (ducksalad; 1000 g ai/ha): 100; Plant response rating, Barnyardgrass (barnyardgrass [1]; 1000 g ai/ha): 0; Plant response rating, Sedge, Umbrella (sedge, umbrella; 1000 g ai/ha): 0; Plant response rating, Rice (rice; 1000 g ai/ha): 0; Plant response rating, Morningglory (morningglory; [4]): 0; Plant response rating, Morningglory (morningglory; [5]): 0; Plant response rating, Morningglory (morningglory; [6]): 0; Plant response rating, Barnyardgrass (barnyardgrass [2]; [3]): 30; Plant response rating, Barnyardgrass (barnyardgrass [2]; [4]): 80; Plant response rating, Barnyardgrass (barnyardgrass [2]; [5]): 50; Plant response rating, Barnyardgrass (barnyardgrass [2]; [6]): 90
